From patent US20070232492A1, “Herbicidal Composition” (Ishihara Sangyo Kaisha, LTD., priority 2004, published 2007)

Assays:
[1] = test system: Japanese bulrush (Scirpus juncoides); assay: Growth inhibition of Japanese bulrush in paddy soil pots, application under submerged condition, visual rating and Colby expected value; assay type: in vivo
Procedure, shortened: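 Scirpus juncoides was sown in paddy soil pots flooded to 3.5 cm and treated under submerged conditions at the 2–3 leaf stage with water-diluted formulations, alone or in combination. Growth inhibition was rated visually 10 or 19 days after application (0% untreated to 100% complete kill). Expected combination values come from Colby's formula.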

[2] = test system: flatsedge (Cyperus serotinus); assay: Growth inhibition of flatsedge (planted tubers) in paddy soil pots, application under submerged condition, visual rating and Colby expected value; assay type: in vivo
Procedure, shortened: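 Tubers grown in flooded paddy soil (3.5 cm water); compounds, alone or mixed, diluted in water and applied submerged at about 2.5-4 leaf stage. Growth inhibition rated visually 21-30 days later (0% untreated to 100% kill); expected mixture values by Colby equation.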

[3] = Schoenoplectiella juncoides, soil, 696 h, read-out: Growth inhibition rate (%) Observed

CCCOCCN(C(=O)CCl)c1c(CC)cccc1CC [Compound (B3.1), pretilachlor]
inhibition at 50 g/ha ([1]; Schoenoplectiella juncoides, soil, 240 h, 0.5 g/a, 2.3 to 2.6 leaf stage, 10 days after application, read-out: Growth inhibition rate (%) Observed): 3% | inhibition at 100 g/ha ([1]; Schoenoplectiella juncoides, soil, 240 h, 1 g/a, 2.3 to 2.6 leaf stage, 10 days after application, read-out: Growth inhibition rate (%) Observed): 10% | inhibition at 400 g/ha ([2]; Cyperus serotinus, soil, 720 h, 4 g/a, 2.5 to 3.0 leaf stage, 30 days after application, Test Examples 46-60, read-out: Growth inhibition rate (%) Observed): 20%

CCS(=O)(=O)Oc1ccc2c(c1)C(C)(C)CO2 [Compound (B8.1), benfuresate]
inhibition at 600 g/ha [1, 3]: 90% | inhibition at 900 g/ha [1, 3]: 89% | inhibition at 1200 g/ha [1, 3]: 89% | inhibition at 600 g/ha ([2]; Cyperus serotinus, soil, 720 h, read-out: Growth inhibition rate (%) Observed): 93%

COCC(=O)OC(c1ncccc1S(=O)(=O)NC(=O)Nc1nc(OC)cc(OC)n1)C(C)F (centres unmarked) [Compound A2, flucetosulfuron]
Growth inhibition rate (%) Observed ([1]; 0.025 g/a, 2 leaf stage, 19 days after application, Test Example 33): 43% | Growth inhibition rate (%) Observed ([1]; 0.025 g/a, 2.3 to 2.6 leaf stage, 10 days after application): 27% | Growth inhibition rate (%) Observed ([1]; 0.05 g/a, 2 leaf stage, 19 days after application, Test Example 33): 70% | Growth inhibition rate (%) Observed ([1]; 0.05 g/a, 2.3 to 2.6 leaf stage, 10 days after application): 40% | Growth inhibition rate (%) Observed ([1]; 0.075 g/a, 2.6 to 3.1 leaf stage, 22 days after application, Test Examples 50, 58): 94% | Growth inhibition rate (%) Observed ([1]; 0.1 g/a, 2.3 to 2.6 leaf stage, 10 days after application): 63% | Growth inhibition rate (%) Observed ([1]; 0.125 g/a, 2 leaf stage, 19 days after application, Test Example 34): 50% | Growth inhibition rate (%) Observed ([1]; 0.15 g/a, 2.6 to 3.1 leaf stage, 22 days after application, Test Examples 50, 58): 93% | Growth inhibition rate (%) Observed ([1]; 0.167 g/a, 2 leaf stage, 19 days after application, Test Example 34): 79% | Growth inhibition rate (%) Observed ([1]; 0.22 g/a, 2.2 to 2.8 leaf stage, 29 days after application, Test Example 44): 87% | Growth inhibition rate (%) Observed ([1]; 1.5 g/a, 2 leaf stage, 19 days after application, Test Example 34): 87% | Growth inhibition rate (%) Observed ([1]; 8.3 g/ha, 3 leaf stage, 19 days after application, Test Example 37): 70% | Growth inhibition rate (%) Observed ([2]; 0.0275 g/a, 2.8 to 3.2 leaf stage, 29 days after application): 0% | Growth inhibition rate (%) Observed ([2]; 0.15 g/a, 2.5 to 3.0 leaf stage, 30 days after application, Test Examples 46-60): 40% | Growth inhibition rate (%) Observed ([2]; 0.2 g/a, 4 leaf stage, 21 days after application): 20% | Growth inhibition rate (%) Observed ([2]; 0.4 g/a, 4 leaf stage, 21 days after application): 50%
